The record followed here is patent US7455861B2, “Angelicae sinensis extracts useful for treatment of cancers” (priority 2004, dated 2008).

Read-outs that look alike come from different tables or passages of the source.

For this assay, the system named is DBTRG-05MG. The assay is described as follows: Cytotoxicity (IC50) on DBTRG-05MG. The class given is cell-based. The settings on record: Homo sapiens. The protocol:
Human tumor cell lines (MCF-7, CL1-5, HT-29, Caco-2), human umbilical vascular endothelial cells (HUVEC), and human dermal fibroblasts (HDF) were tested for sensitivity on Angelicae sinensis extracts, ligustilide, n-butylidenephthalide and its derivatives in vitro. The DBTRG-05MG, BCM, HL-60 and J5 cells were grown in RPMI-1640 medium containing 10% fetal calf serum and 100 ng/ml penicillin and […] streptomycin at 37° C. in a humidified atmosphere with 5% CO2. The G5T/VGH, RG2, Ni 8, SVEC and Balb/3T3 cells were cultured in DMEM with 10% fetal calf serum and 100 ng/ml penicillin and […] streptomycin at 37° C. in 5% CO2. Mycoplasma infection of the culture cells was excluded by PCR screening methods before each experiment.
The effects on cell viability after the treatments with different concentrations of the Angelicae sinensis extracts or the active components purified therefrom were evaluated by modified MTT assay in triplicate. Briefly, the cells (5×10^3) were incubated into 96-well plates containing 100 μl of a growth medium. The cells were permitted to adhere for 24 hours, then treated with 100 μl of the herbal extracts or the active components dissolved in the medium. The control contained DMSO of <0.02% (v/v). After 24, 48 and 72 h incubation, the drug-containing medium was replaced by 50 μl of fresh medium, and cells in each well were incubated in 50 μl of 400 μg/ml MTT for 6-8 h. The medium and MTT were removed later and 100 μl of DMSO was added to each well and to the control, to dissolve the soluble components. Absorbance at 550 nm of the solutions was measured with MRX Microtiter Plate Luminometer (DYNEX, USA). The absorbance of untreated cells was considered as 100%. To evaluate the effects of the extracts or the active components on cell growth rate of GBM cells, 5×10^3 exponentially growing cells were treated with different concentrations for 24, 48, or 72 h. The cytotoxicity of each test substance was determined as an IC50 value, which represents the drug concentration required to cause 50% inhibition. […]

Turning to `CCCC=C1OC(=O)c2ccccc21` [BP, n-Butylidenephthalide], the concentration for half-maximal inhibition (IC50) by setting is: (Table 2, read-out: Cytotoxicity (IC50) DBTRG-05MG) 7 to 10 µg/mL; (Table 2, value in parentheses, read-out: Cytotoxicity (IC50) DBTRG-05MG) 37.2 to 53.2 µM.
